Experiments:
[1] = system: Vav3−/− p190-BCR-ABL leukemia; test: Vav3−/− p190-BCR-ABL leukemic mice, osmotic pumps; type: in vivo
Protocol: FIG. 14: IODVA1 targets Vav3 in vitro and in vivo. (A) Ba/F3 cells expressing empty vector Mieg3 or p190-BCR-ABL1 were treated with vehicle control or IODVA1 (IO1, 3 μM) for 30 min and incubated with GST-Rac and glutathione beads. Beads were washed and the protein complexes were separated on SDS-PAGE and immunoblotted for pVav3. Input Vav3 was used as control. (B) Binding affinity (Kd) between IODVA1 and Vav3 (green), LARG (brown), and RacGDP (blue). […] Error bars=SD; N=3. (C) Quantification of the average number of colonies made by bone marrow wild-type (black) and Vav3^−/− (lilac) p190-BCR-ABL1 leukemic cells treated with vehicle control or IODVA1 (IO1, 1 and 3 μM) (* p≤0.05; ** p≤0.01; *** p≤0.001; ns, not significant). (D) Representative histogram data of the cell cycle analysis of wild-type (black and grey bars) and Vav3^−/− (dark and light lilac) bone marrow cells expressing p190-BCR-ABL and treated with vehicle control or IODVA1 (IO1, 3 μM) for 20 h. (E) Quantification by densitometry of the pVav3 band from FIG. 14A. (F) Kaplan-Meier plot showing survival of wild-type or Vav3^−/− p190-BCR-ABL1 leukemic mice post-treatment with osmotic pumps implanted subcutaneously and carrying vehicle control or IODVA1 (IO1, 1 mM). (G) Count (% leukemic progenitors in peripheral blood) of residual leukemic (EGFP^+-BCR-ABL1) cells at week 1 and 2 post-treatment for mice from (F). […]

[2] = system: Vav3−/− p190-BCR-ABL1 BM leukemic cells expressing ΔCH-mutant Vav3; test: Vav3 rescue, cell cycle analysis; type: cell-based, murine; conditions: even at the highest concentration
Source text: FIG. 15: Expression of transgenic Vav3 re-sensitizes Vav3-deficient cells to IODVA1. (A) Vav3 domain structure, calponin-homology (CH), acidic region (Ac), Dbl-homology (DH), pleckstrin-homology (PH), zinc finger (ZF), Src-homology 2 and 3 (SH2/SH3). (B) Representative histogram data of the cell cycle analysis of wild-type (Vav3^+/+) and Vav3-deficient (Vav3^−/−) p190-BCR-ABL1 leukemic bone marrow cells expressing empty vector, full-length Vav3 or ΔCH mutant and treated with vehicle control (black) or IODVA1 at 5 (red) or 10 μM (dark grey) for 18 h. (C) Quantification of the average number of colonies made by bone marrow wild-type and Vav3^−/− p190-BCR-ABL1 leukemic bone marrow cells expressing empty vector, full-length Vav3 or ΔCH mutant and treated with vehicle control (black) or IODVA1 at 1 (light salmon), 5 (red) and 10 μM (dark grey). *** p≤0.001.
Next, we reasoned that if IODVA1 targets Vav3, rescuing Vav3^−/− leukemic cells by expressing exogenous Vav3 should re-sensitize those cells to IODVA1. We expressed full-length Vav3 or the dominant active ΔCH-mutant (FIG. 15A) in Vav3^−/− p190-BCR-ABL1-transformed murine bone marrow leukemic cells and analyzed changes in cell cycle 18 h post-treatment with vehicle control or IODVA1 (FIG. 15B). Expressing full-length Vav3 but not the empty vector re-sensitized the Vav3^−/− BM leukemic cells to IODVA1 as shown by a 5.8-fold increase in apoptosis (p=0.0005) and a 15% decrease (p=0.08) in cells in the S-phase at 10 μM.
For Vav3 rescue experiments, low density bone marrow cells from wild-type ([…]) or Vav3^−/− mice were transduced with bicistronic retroviral vector encoding p190 BCR-ABL1-IRES-YFP (yellow fluorescent protein) and YFP^+ cells were sorted 48 h post-transduction. […] Cell cycle was analyzed at 18 h post BrdU incorporation.
Cell cycle was analyzed by using in vitro incorporation of 5-Bromo-2-deoxyuridine using Brdu Flow kit (BD Pharmingen, Cat #552598). […] DNAse treatment was done according to the instructions and stained with anti BrdU and apoptosis was analyzed by 7-AAD staining through flow cytometry analysis.

## OC1(c2ccccn2)N=C(Nc2nc3ccccc3[nH]2)N=C1c1ccccn1 (centres unmarked) [IODVA1, (Z)-2-((1H-benzo[d]imidazol-2-yl)imino)-4,5-di(pyridin-2-yl)-2,5-dihydro-1H-imidazol-5-ol]
[1]
  response (survival) of Vav3−/− leukemic mice: did not respond
[2]
  re-sensitization to IODVA1: did not re-sensitize

— US11564913B2, “Compositions and methods for treating cancer” (Children's Hospital Medical Center, priority 2019, dated 2023)
